# Experimental data from patent US20100331545A1, “REGULATOR FOR SIGNALING TOLL-LIKE RECEPTOR, WHICH COMPRISES CATHEPSIN INHIBITOR AS ACTIVE INGREDIENT” (NIPPON CHEMIPHAR CO., LTD., priority 2007, published 2010).
# Columns and labels:
# TLR3 = assay: Cytokine mRNA expression in poly(I:C)-treated DCs derived from mouse spleen; assay type: cell-based; conditions: poly(I:C) (TLR3 ligand)-treated mouse spleen DCs, total RNA 3 hours after stimulation
# Method: (§1) Quantitative RT-PCR was performed as described in K. Sato et al., Nat Med 12, 1410 (2006). The following primers were used.
# (§2) Spleens were excised from male mice of 8 to 10 weeks. Dendritic cells (DCs) were separated from the spleens using pan DC microbeads (Miltenyi Biotec, Bergisch Gladbach, Germany), according to the manufacturer's instructions.
# (§3) Total RNA was extracted 3 hours after stimulation.
# TLR7, 8 = assay: Cytokine mRNA expression in R837-treated DCs derived from mouse spleen; assay type: cell-based; conditions: R837 (TLR7, 8 ligand)-treated mouse spleen DCs, total RNA 3 hours after stimulation
# Method: as §1, §2, §3
# Th17 cells = assay: Th17 cell induction by splenic DCs cocultured with CD4+ T cells (intracellular staining of IL-17); assay type: cell-based, mouse; conditions: 3 days coculture
# Method: (§4) Before staining, cells were incubated with mouse BD Fc Block to minimize nonspecific staining. The cells were then stained with fluorophore-conjugated monoclonal Abs. The following fluorophore-conjugated mAbs were used; Allophycocyanin (APC)-conjugated anti-CD3e (145-2C11), fluorescein isothiocyanate (FITC)-conjugated anti-CD4 (RM4-5), CD11c (HL3), CD40 (3/23), CD80 (16-10Al), CD86 (GL1), I-A^d (AMS-32.1), and Phycoerythrin (PE)-conjugated anti-mouse IL-17 (TC11-18H10). For intracellular cytokine staining, cells were collected and left unstimulated or were stimulated for 5 hours with PMA (40 ng ml^−1) and ion-omycin (4 μg ml^−1) in the presence of GolgiPlug at the recommended concentration. Standard intracellular cytokine staining was performed as follows; cells were first stained extracellularly with APC-conjugated anti-CD3 and FITC-conjugated anti-CD4 mAbs, then were fixed and permeabilized with Cytofix/Cytoperm solution, and finally were stained intracellularly with PE-conjugated anti-IL-17 mAb. Flowcytometric analysis was performed by FACScan with CellQuest software or FACSCanto II with Diva software.
# CD4-positive T cells and splenic DCs were isolated from the spleen using a magnetic sorter and anti-CD4 microbeads. These cells were stimulated with plate-bound anti-CD3 and anti-CD28 mAbs (1 μg ml^−1 each) for 3 days in the presence of 2 ng ml^−1 human TGF-β, 10 μg ml^−1 each of anti-IFN-γ and anti-IL-4 mAbs, with or without CpG ODN, LPS or PGN.
# Cathepsin K inactivation results in defective Th17 polarization in response to CpG, but not LPS or PGN were measured. CD4^+T cells and DCs were sorted from the spleen, and cocultured in the presence of CpG, LPS, or PGN for 3 days. After the culture, percentages of CD3e^+CD4^+IL-17^+ cells were analyzed by flowcytometry.
# [1] = tested on: T cells stimulated with anti-CD3/CD28 antibodies; assay: Cell proliferation assay of T cells stimulated with anti-CD3/CD28 antibodies; assay type: cell-based, mouse
# Method: Cell proliferation was evaluated by using a Cell Proliferation ELISA kit according to the manufacturer's protocol.
# [2] = tested on: rat model of adjuvant arthritis; assay: Rat adjuvant arthritis, oral NC-2300 compared with alendronate; assay type: in vivo; conditions: for bone erosion in the ankle (radiological analysis): administered daily day 0 to day 35, soft X-rays of ankle joints day 36
# Method: Rats were injected with complete Freund's adjuvant on day 0.
# Bone mineral density of the proximal tibia assessed by pQCT (day 36).
# Assessment for hind paws of adjuvant arthritis rats treated with NC-2300 or vehicle.
# Adjuvant arthritis in hind paw administered with NC-2300 or vehicle was evaluated.
# [3] = tested on: T cells stimulated with anti-CD3/CD28 antibodies; assay: IL-2 production of T cells stimulated with anti-CD3/CD28 antibodies (ELISA); assay type: cell-based, mouse
# Method: (§5) Cells were cultured for 3-24 hours with or without PAMPs or plate-bound anti-CD3/CD28 antibodies in the presence or absence of NC-2300, and concentration of cytokines in the culture supernatant was determined by ELISA kits, according to the manufacturer's instructions.
# TLR9 [4] = assay: Cytokine mRNA expression in CpG-treated BM-DCs (quantitative RT-PCR); assay type: cell-based, mouse
# Method: as §1
# The level of mRNA expression was normalized with that of β-actin expression.
# BM-DCs were generated by either GM-CSF or Flt3L. Total RNA was extracted 6 hours after CpG stimulation.
# BM-DCs = assay: In vitro development of BM-DCs; assay type: cell-based, mouse
# Method: (§6) Immature DCs were generated from mouse BM, as described in K. Inaba et al., J. Exp. Med. 176,1693 (1992). In brief, BM cells were cultured with 10 ng ml^−1 murine GM-CSF or 10 ng ml^−1 murine Flt3L in RPMI 1640 medium supplemented with 10% FBS for 6 days. Loosely adherent cells were harvested by gentle pipetting and were used as BM-derived DCs. To obtain BM-derived macrophages, BM cells were cultured with 10 ng ml^−1 M-CSF in α-MEM medium supplemented with 10% FBS for 2 days, and adherent cells were used as BM-derived macrophages. For the pathogen-associated molecular pattern (PAMP) stimulation, cells were plated at 5×10^5 cells ml^−1 in 24-well plates, and cultured with 10 ng ml^−1 Lipopolysaccharide (LPS), 30 μg ml^−1 Peptidoglycan Type I (PGN), or Endotoxin-free phosphorothioate-stabilized CpG oligodeoxynucleotides (CpG ODN).
# BM-derived macrophages = assay: Activation of BM-derived macrophages stimulated by PAMPs; assay type: cell-based, mouse
# Method: as §6, §5
# TLR9 [5] = assay: CpG-stimulated cytokine production by BM-DCs (ELISA); assay type: cell-based, mouse; conditions: CpG (TLR9 ligand), 24 hours
# Method: as §6, §5
# BM-DCs were stimulated with peptidoglycan (PGN), lipopolysaccharide (LPS), and unmethylated CpG oligodeoxynucleotides (CpG) for 24 hours and the culture super-natants were subjected to ELISA. *P<0.05, ***P<0.001 (versus control).
# cathepsin K = molecular target: T1, cathepsin K (Mus musculus, UniProt P55097); assay: Enzymatic activity of cathepsin K in BM-DCs (substrate Z-Gly-Pro-Arg-MCA); assay type: cell-based; conditions: BM-DCs pre-treated 24 hours, cell lysates
# T1 construct: cell lysates were subjected to enzymatic assay; endogenous in cells; host or cells: bone marrow-derived dendritic cells (BM-DCs): cells pre-treated with NC-2300, then lysed
# T1 sequence (P55097 115-329): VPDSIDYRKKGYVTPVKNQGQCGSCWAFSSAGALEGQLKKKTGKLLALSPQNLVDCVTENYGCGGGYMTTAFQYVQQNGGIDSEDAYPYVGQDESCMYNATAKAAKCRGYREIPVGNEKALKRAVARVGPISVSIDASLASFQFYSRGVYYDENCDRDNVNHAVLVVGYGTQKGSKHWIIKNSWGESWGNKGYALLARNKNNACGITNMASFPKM
# Method: BM-DCs were pre-treated with or without the cathepsin K inhibitor NC-2300 for 24 hours and washed extensively with cold phosphate-buffered saline (PBS), and cell lysates were subjected to enzymatic assay. Cathepsin K activity was measured with cathepsin K specific substrate, Z-Gly-Pro-Arg-MCA (GPR).
# CD40, CD80 and CD86 = assay: TLR9-mediated expression of cell surface molecules in DCs (flowcytometry); assay type: cell-based, mouse; conditions: stimulated 48 hours
# Method: as §4
# DCs were stimulated with CpG or LPS for 48 hours and analyzed by flowcytometry.
# [6] = tested on: extracellular-signal regulated kinases 1/2 (ERK 1/2); assay: ERK 1/2 phosphorylation in stimulated DCs (immunoblot); assay type: cell-based, mouse; conditions: CpG-induced
# Method: DCs were cultured in low serum medium (0.1% FBS) for 4 hours to reduce background and then stimulated with CpG ODN or LPS in the presence or absence of NC-2300. The stimulated cells were subjected to immunoblot analyses as described in K. Sato et al., Nat Med12, 1410 (2006), using Abs for ERK-1/2, phosphorylated ERK-1/2 and β-actin.
# cathepsin K−/− DCs = assay: Cytokine production in WT or cathepsin K−/− DCs in response to LPS or CpG, with chloroquine; assay type: cell-based, mouse; conditions: chloroquine added 1 hour before the stimulation; cytokines IL-12 and IL-6
# Method: as §5
# Cytokine production in WT or cathepsin K^−/− DCs in response to LPS or CpG was measured. Chloroquine was added 1 hour before the stimulation to suppress endosomal acidification. N.D., not detected. *P<0.05, ***P<0.001 (versus WT).
# [7] = arthritic rats, high dose treatment, day 35
# [8] = BM-DCs, total RNA 6 hours after CpG stimulation
structure (smiles),measurement,setting,value
"CCOC(=O)[C@H]1O[C@@H]1C(=O)N[C@@H](CC(C)C)C(=O)NCCC(C)C [E64d, reference compound]",cytokine mRNA expression (IFN-1),TLR3,suppressed
same,cytokine mRNA expression (IFN-1),"TLR7, 8",suppressed
"CC(C)COC[C@H](CC(C)C)NC(=O)[C@H]1O[C@@H]1C(=O)[O-].[Na+] [NC-2300, monosodium (2S,3S)-3-[[(1S)-1-isobutoxymethyl-3-methylbutyl]carbamoyl]oxirane-2-carboxylate]",ability of DCs to induce Th17 cells,Th17 cells; DCs stimulated with CpG,markedly inhibited
same,ability of DCs to induce Th17 cells,Th17 cells; DCs stimulated with LPS,only when DCs were stimulated with CpG
same,ability of DCs to induce Th17 cells,Th17 cells; DCs stimulated with PGN,only when DCs were stimulated with CpG
same,proliferation of T cells,[1],no effect
same,cytokine mRNA expression (IFN-1),TLR3,suppressed
same,locomotion activity: arthritis-induced incapacitation of rearing behavior,[2]; [7],significantly ameliorated the arthritis-induced incapacitation of rearing behavior
same,locomotion activity: severity of the hind limb lameness,[2]; [7],reduced the severity of the hind limb lameness
same,onset rate of arthritis,[2]; rat adjuvant arthritis,without affecting the onset rate of arthritis
same,paw swelling in the course of arthritis,"[2]; rat adjuvant arthritis, hind paws",ameliorated paw swelling
same,inflammation when administered after the onset of disease,"[2]; rat adjuvant arthritis, administered after the onset of disease",ameliorated inflammation
same,bone erosion in the ankle (radiological analysis),[2]; rat adjuvant arthritis,markedly suppressed bone erosion
same,periarticular osteoporosis in the proximal tibia (bone mineral density),"[2]; rat adjuvant arthritis, pQCT day 36",comparable inhibitory effect
same,IL-2 production of T cells,[3],no effect
same,CpG-induced expression of IL-6 at the mRNA level,TLR9 [4]; [8],downregulated
same,CpG-induced expression of IL-12 at the mRNA level,TLR9 [4]; [8],downregulated
same,CpG-induced expression of IL-23 at the mRNA level,TLR9 [4]; [8],downregulated
same,IFN production by Flt3L-induced DCs in response to CpG,"TLR9 [4]; Flt3L-induced DCs, CpG",suppressed
same,in vitro development of BM-DCs,BM-DCs,no effects
same,cytokine mRNA expression (IFN-1),"TLR7, 8",suppressed
same,activation of BM-derived macrophages,BM-derived macrophages,no significant effects
same,production of IL-12 by DCs,TLR9 [5],significantly inhibited
same,production of IL-23 by DCs,TLR9 [5],significantly inhibited
same,cathepsin K activity in DCs,cathepsin K,inhibited by NC-2300 in a dose-dependent manner
same,expression of CD40 in DCs,"CD40, CD80 and CD86",reduced expression
same,expression of CD80 in DCs,"CD40, CD80 and CD86",reduced expression
same,expression of CD86 in DCs,"CD40, CD80 and CD86",reduced expression
same,phosphorylation of ERK 1/2 in DCs,[6],Suppression
"NCCCC(O)(P(=O)(O)O)P(=O)(O)O [alendronate, reference compound]",bone erosion in the ankle (radiological analysis),[2]; rat adjuvant arthritis,did not efficiently suppress bone erosion
CCN(CC)CCCC(C)Nc1ccnc2cc(Cl)ccc12 (stereo not shown) [chloroquine],cytokine induction in cathepsin K−/− DCs,cathepsin K−/− DCs,further suppressed
